Laboratory results from patent publication US20070254861A1, “Methods for the prevention and/or treatment of peripheral arterial disease” (Astellas Pharma Inc., priority 2006, published 2007).
Like-named read-outs stand apart in the source and are kept apart here. Numbered stars: 1 amine (or outer) side, 2 acyl side, 3 side chain; on linkers, the order of the positions; unused ones are H or OH. Bridge positions count the residues as written; N and C are the ends. Square brackets hold non-standard residues; d marks the D form. Peptide text beside a SMILES is read from it. Leu(3R-O(AcLeu(3R-OH))) = CC(=O)N[C@H](C(=O)O[C@H](C(C)C)[C@H](N)C(=O)O)[C@H](O)C(C)C; X1 = CO[C@H](C)C(C(=O)[*:2])N(C)[*:1]; dPhLac = O=C(O)[C@H](O)Cc1ccccc1; NMeA = CN[C@@H](C)C(=O)O; NMeDha = C=C(NC)C(=O)O

Legend:
[1] = test system: lauric acid-induced peripheral arterial disease model; assay: Lesion progression in rat peripheral arterial disease model induced by lauric acid; type: in vivo
Method: A rat peripheral arterial disease model was produced by using a lauric acid injection method modified from that of Ashida et al. (Thrombosis research, 18, 55, 1980). Six to 24 animals were used in each group of this experiment. After being fasted overnight, each rat was anesthetized with pentobarbital (60 mg/kg i.p.), and the left femoral artery was freed from the surrounding tissue. The femoral artery was cannulated with a polyethylene catheter for i.a. injection of the lauric acid and the test drug. For the i.v. infusion of PGE1, the jugular vein was cannulated with a polyethylene catheter. To induce peripheral arterial vascular injury, 0.33 ml/kg of lauric acid (7.5 mg/ml in distilled water) was injected into the distal side of the arterial. Compound (I) was administered in a single i.a. bolus injection 15 minutes after the lauric acid injection. PGE1 was administered either intravenously for 30 minutes at 1 μg/kg/minutes starting 5 minutes before the lauric acid injection or intra-arterially for 15 minutes at 0.2 μg/kg/minutes starting 5 minutes after the lauric acid injection. Clopidogrel was administered orally either at 3 and 30 mg/kg 4 hours before the lauric acid injection, or at 30 mg/kg 2 hours after the lauric acid injection. It was also administered orally once a day for 3 days after the lauric acid injection. The treated hindlimb was examined macroscopically on days 3 after the lauric acid injection. The progress of the lesion was assessed using the following 5-point graded scoring system: grade 0: normal appearance, grade 1: the affected region was limited to the nails, grade 2: the affected region was limited to the fingers, grade 3: either the fingers are beginning to fall off or lesions appear on the paw, grade 4: either the paw is beginning to fall off or lesions appear on the leg. The condition of each toe was assessed and scored, and the sum of the scores for the five toes was used as the lesion index. If a lesion developed on the sole of the foot, 5 more points were added.

[2] = test system: dermal blood flow in rat hindlimbs; assay: Decreased dermal blood flow after lauric acid injection (laser Doppler); type: in vivo
Method: Three male SD rats (Japan CLEA) were used in each group of this experiment. A laser Doppler blood flow meter (Laser Doppler Perfusion Imager System, Lisca) was used to evaluate the perfusion in the left (ischemic) and right (non-ischemic) rat hindlimbs. Before and during scanning, animals were placed on a heating plate set at 37° C. to minimize variations in temperature. The femoral artery was cannulated with a polyethylene catheter for i.a. injection of the lauric acid and test drug. For i.v. PGE1 infusion, the jugular vein was cannulated with a polyethylene catheter. Either compound (I) (10 μg/kg) or vehicle was administered in an i.a. bolus injection 15 minutes after the lauric acid injection (0.33 ml/kg, 7.5 mg/ml in distilled water). The laser Doppler images were recorded just before and 10 minutes after the lauric acid injection, as well as 10 minutes after the compound (I) (or vehicle) injection. PGE1 was administered by i.v. infusion at a rate of 1 μg/kg/minutes for 30 minutes beginning 5 minutes before the lauric acid injection. The laser Doppler images were recorded just before and 5 minutes after the start of infusion (just before the lauric acid injection), and then again 10 minutes after the lauric acid injection. Either vehicle (0.5% methylcellulose solution) or clopidogrel (30 mg/kg) was orally administered 4 hours before the experiment. For the oral studies, the laser Doppler images were recorded just before and 10 minutes after the lauric acid injection.

isolated rat aorta = assay: Vasorelaxant effect on vasoconstriction in isolated rat aorta; type: cell-based; settings: for IC50: Rattus norvegicus
Method: Four male SD rats (Japan CLEA) were used in each group of this experiment. Rats were anesthetized with pentobarbital (60 mg/kg i.p.) and euthanized via exsanguination. The aortas were isolated and all adjacent tissue was removed. Rings of aorta, approximately […] length, were suspended in 10-ml organ baths containing Krebs-Henseleit solution (henceforth referred to as Krebs) of the following composition (mM): NaCl, 112.0; KCl, 4.7; KH2PO4, 1.2; MgSO4, 1.2; CaCl2, 2.5; NaHCO3, 25.0; glucose, 11.0. The Krebs was maintained at 37±1° C. and aerated with a gas mixture of 95% O2:5% CO2 (pH 7.4). Experiments were conducted on aortic tissue of two types. For type 1, the endothelium was removed by gently rubbing the internal surface of the vessel. For type 2, care was taken to maintain the integrity of the endothelium. One ring was placed on a hook that was suspended from a force displacement transducer (SB-1T, Nihon Kohden, Tokyo, Japan), 1.0 g tension was applied, and changes in the force of contraction were isometrically measured. Following a 1-h equilibration period, the rings were pretreated with 1 μM phenylephrine. Compound (I) was dissolved in dimethyl sulfoxide (DMSO) and added to the baths (0.1% DMSO, v/v), after which a cumulative compound (I) (1-100 nM) concentration-response curve was constructed for each type of ring. Contractions were caused in aorta rings with endothelium using three different compounds: 10 μM serotonin (5-HT), 30 nM endothelin-1 (ET-1), and 60 mM KCl. The vasorelaxant effect of compound (I) on the contractions caused by each of these compounds was then compared. Various concentrations of compound (I) were added 30 minutes before treatment with each vasoconstrictor. For 5-HT and KCl, the concentration-inhibition rate was measured for each tissue. For ET-1, each tissue was used to measure the inhibition rate in response to a given concentration of compound (I).

[3] = test system: ADP-induced platelet aggregation; assay: Ex vivo platelet aggregation inhibition after single administration in the rat femoral artery; settings: 5 minutes after injection, n=4, mean±SEM
Method: Four male SD rats (Japan CLEA) were used in each group of this experiment. All animals were fasted overnight before the experiment. After being anesthetized with pentobarbital (60 mg/kg i.p.), vehicle (5% ethanol) or compound (I) was injected into either the left femoral artery or the right jugular vein via a catheter. The rats were anesthetized with pentobarbital (60 mg/kg i.p.) before blood sampling. Blood was collected from the vena cava in syringes containing 3.8% sodium citrate at the following time points: 5 minutes after an intra-arterial (i.a.) single bolus injection of compound (I) (1-10 μg/kg). Platelet-rich plasma was obtained by centrifuging the blood at 200×g for 5 minutes at ambient temperature. This residue was further centrifuged at 2,000×g for 10 minutes in order to obtain platelet-poor plasma. Platelet counts were measured with an automatic cell counter (MEK-6258, Nihon Kohden, Tokyo, Japan), and adjusted to 3×10^5/μl with platelet-poor plasma. Platelet aggregation in platelet-rich plasma was measured using an aggregometer (MCM Hema Tracer 212, MC Medical, Tokyo, Japan) to record the increase in light transmission detected through a stirred suspension maintained at 37° C. for 5 minutes. Platelet aggregation was induced in 90 μl of platelet-rich plasma (3×10^5/μl) by adding 10 μl of 50 μM ADP. The inhibitory rate was calculated by dividing the absorbance area for the mixture containing the test sample by the absorbance area obtained for the vehicle-treated group.

[4] = test system: systemic blood pressure and heart rate; assay: Blood pressure and heart rate after single bolus injection in femoral artery of rats; type: in vivo, rat
Method: Five male SD rats (Japan CLEA) were used in each group of this experiment. The rats, which were fasted overnight, were anesthetized with urethane (1.4 g/kg i.p.) and then secured on an operating table. The left carotid artery was cannulated with polyethylene catheters in order to monitor systemic blood pressure and heart rate. The left femoral artery was likewise cannulated with polyethylene catheters for the injection of compound (I). Systemic blood pressure was measured with a pressure transducer (AP-200T, Nihon Kohden) and heart rate was measured with a tachometer (AT-600G, Nihon Kohden) that was triggered by the arterial pulse wave. Changes in these parameters were continuously monitored by a thermal recorder (WT-685G, Nihon Kohden). Compound (I) was administered in an i.a. bolus injection at the rate of 5 mL/kg. The dosage (10 to 100 μg/kg) was increased every 10 to 20 minutes. The inhibitory rate was calculated by dividing the heart rate and mean blood pressure levels obtained after the compound (I) injection by them obtained after the vehicle injection.

[5] = Pharmacokinetic studies using rats, i.v. bolus injection; type: in vivo; settings: rat, iv, plasma, after i.v. bolus injection
Gq/11 = settings: Journal of Biological Chemistry, 279, 47438, 2004; cited from earlier work
[6] = test system: ADP-induced platelet aggregation; settings: JP-2003-210190; Journal of Antibiotics, 56, 358, 2003; cited from earlier work

COC(=O)[C@H](c1ccccc1Cl)N1CCc2sccc2C1 [clopidogrel, (+)-(S)-methyl 2-(2-chlorophenyl)-2-(6,7-dihydrothieno[3,2-c]pyridin-5(4H)-yl)acetate]
Inhibition of lesion progression ([1]; oral, administered 4 hours before the lauric acid injection): efficacy of clopidogrel was detected | Inhibition of lesion progression ([1]; oral, administered after the lauric acid injection): no effect was observed | Effect on lauric acid-induced reduction in dermal blood flow ([2]; 30 mg/kg oral 4 hours before the experiment): improved the blood flow only slightly

CCCCC[C@H](O)/C=C/[C@H]1[C@H](O)CC(=O)[C@@H]1CCCCCCC(=O)O [PGE1, prostaglandin E1]
Inhibition of lesion progression ([1]; i.a. infusion at 0.2 μg/kg/minutes for 15 minutes starting 5 minutes after lauric acid): significantly inhibited lesion progression | Inhibition of lesion progression ([1]; i.v. infusion at 1 μg/kg/minutes for 30 minutes starting 5 minutes before lauric acid): significantly inhibited lesion progression | Effect on lauric acid-induced reduction in dermal blood flow ([2]; continuous i.v. infusion 1 μg/kg/minutes, after lauric acid injection): no improvement in the blood flow | Dermal blood flow in both hindlimbs before lauric acid ([2]; i.v. infusion 1 μg/kg/minutes, 5 minutes after the start of the infusion): marked increase in dermal blood flow

C=C1C(=O)N[C@@H](C)C(=O)N(C)[C@@H](C)C(=O)N[C@@H]([C@H](OC(=O)[C@@H](NC(C)=O)[C@H](O)C(C)C)C(C)C)C(=O)N(C)C([C@@H](C)OC)C(=O)O[C@H](C)[C@H](NC(C)=O)C(=O)O[C@H](Cc2ccccc2)C(=O)N1C (stereo partly drawn) [compound (I)] (Ac-T[dPhLac][NMeDha]A[NMeA][Leu(3R-O(AcLeu(3R-OH)))][X1]; ester 1-C)
Effect on KCl-induced contractions (isolated rat aorta; 60 mM KCl, even at a concentration of 1 μM): ineffective | IC50 (isolated rat aorta; contraction induced by 30 nM ET-1, aorta with endothelium, n=4, mean, read-out: IC50 of inhibition of vascular contraction): 18 nM | IC50 (isolated rat aorta; contraction induced by 10 μM 5-HT, aorta with endothelium, n=4, mean±SEM, read-out: IC50 of inhibition of vascular contraction): 8.6 ± 1 nM | IC50 (isolated rat aorta; span over the three vasoconstrictors, read-out: IC50 values for vasoconstrictions induced by phenylephrine, 5-HT and ET-1): 8.6 to 18 nM | IC50 (isolated rat aorta; with endothelium, pre-contracted with 1 μM phenylephrine, n=4, mean±SEM, read-out: IC50 of relaxation of isolated rat aorta): 16 ± 2.3 nM | IC50 (isolated rat aorta; without endothelium, pre-contracted with 1 μM phenylephrine, n=4, mean±SEM, read-out: IC50 of relaxation of isolated rat aorta): 11 nM | Inhibitory rate of ADP-induced platelet aggregation ([3]; 1 μg/kg i.a. bolus): −5.6±5.4% | Inhibitory rate of ADP-induced platelet aggregation ([3]; 3 μg/kg i.a. bolus): 38±5.1% | Inhibitory rate of ADP-induced platelet aggregation ([3]; 10 μg/kg i.a. bolus): 71±7.0% | Dose inhibiting lesion progression with significance ([1]; single i.a. bolus 15 minutes after the lauric acid injection, day 3): ≥ 0.003 mg/kg | Effect on lauric acid-induced reduction in dermal blood flow ([2]; 10 μg/kg i.a. bolus 15 minutes after the lauric acid injection): improved the lauric acid-induced reduction in dermal blood flow somewhat, but did not correct it completely | Relative mean blood pressure reduction ([4]; 30 μg/kg i.a. bolus): 25±5.2% | Relative mean blood pressure reduction ([4]; 100 μg/kg i.a. bolus): 50±2.1% | Hypotensive dose relative to dose with significant preventive effect (Example 4) ([4]; i.a. administration): 10 times | Significant hypotensive dose ([4]; i.a. bolus, Example 6): 0.03 mg/kg | Change of the heart rate ([4]; up to 100 μg/kg i.a.): no significant change | half-life [5]: 3.7 min | Gq/11 inhibition (Gq/11): specific Gq/11 inhibitor | Inhibition of ADP-induced platelet aggregation in human [6]: inhibits ADP-induced platelet aggregation in human
